In PubChem BioAssay (NCI):
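Step 1: Grow cells in 96-well plates. Step 2: Expose to compound for 48 hours at 5 concentrations. Step 3: Interpolate endpoints linearly; if unreached, use highest concentration. GI50: concentration for 50% inhibition of growth. TGI marks complete inhibition of growth.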

Legend:
Assay in all cases: inhibition of tumour cell growth, NCI panel, 48 h
[1] = system: HCT-15 colon
[2] = system: SR leukemia
[3] = system: SK-MEL-28 melanoma
[4] = system: CAKI-1 renal
[5] = system: CCRF-CEM leukemia
[6] = system: SK-OV-3 ovarian
[7] = system: SW-620 colon
[8] = system: HS 578T breast
[9] = system: SF-295 CNS
[10] = system: MCF7 breast
[11] = system: T-47D breast
[12] = system: UO-31 renal
[13] = system: EKVX NSCLC
[14] = system: HT29 colon
[15] = system: PC-3 prostate
[16] = system: IGROV1 ovarian
[17] = system: SNB-75 CNS
[18] = system: NCI-H460 lung
[19] = system: SN12C renal
[20] = system: U251 CNS
[21] = system: RPMI-8226 leukemia
[22] = system: K-562 leukemia
[23] = system: ACHN renal
[24] = system: HL-60(TB) leukemia
[25] = system: OVCAR-8 ovarian
[26] = system: A498 renal
[27] = system: NCI/ADR-RES ovarian
[28] = system: HOP-62 NSCLC
[29] = system: DU-145 prostate
[30] = system: NCI-H226 lung
[31] = system: HCC-2998 colon
[32] = system: MDA-MB-231 breast
[33] = system: BT-549 breast
[34] = system: OVCAR-4 ovarian
[35] = system: UACC-257 melanoma
[36] = system: SK-MEL-2 melanoma
[37] = system: SK-MEL-5 melanoma
[38] = system: UACC-62 melanoma
[39] = system: OVCAR-3 ovarian
[40] = system: A549 NSCLC
[41] = system: SNB-19 CNS
[42] = system: M14 melanoma
[43] = system: COLO 205 colon
[44] = system: SF-268 CNS
[45] = system: 786-0 renal
[46] = system: LOX IMVI melanoma
[47] = system: OVCAR-5 ovarian
[48] = system: HOP-92 NSCLC
[49] = system: NCI-H522 lung
[50] = system: MOLT-4 leukemia
[51] = system: SF-539 CNS
[52] = system: MDA-MB-435
[53] = system: MALME-3M melanoma
[54] = system: TK-10 renal
[55] = system: KM12 colon
[56] = system: RXF 393 renal

SMILES: COC1CCN(Cc2ccc3c(NNC(=O)c4cnccn4)nc4cc(F)ccc4n23)C1 (centres undefined)
- GI50 [1]: 355 nM
- TGI [1]: 16300 nM
- GI50 [2]: 722 nM
- TGI [2]: 20500 nM
- GI50 [3]: 3370 nM
- TGI [3]: > 100000 nM
- GI50 [4]: 933 nM
- TGI [4]: 19700 nM
- GI50 [5]: 468 nM
- TGI [5]: > 100000 nM
- GI50 [6]: 2350 nM
- TGI [6]: 56000 nM
- GI50 [7]: 821 nM
- TGI [7]: 20300 nM
- GI50 [8]: 3440 nM
- TGI [8]: > 100000 nM
- GI50 [9]: 744 nM
- TGI [9]: 14600 nM
- GI50 [10]: 531 nM
- TGI [10]: 12300 nM
- GI50 [11]: 1060 nM
- TGI [11]: 64500 nM
- GI50 [12]: 260 nM
- TGI [12]: 14600 nM
- GI50 [13]: 1080 nM
- TGI [13]: 23000 nM
- GI50 [14]: 552 nM
- TGI [14]: 14800 nM
- GI50 [15]: 1450 nM
- TGI [15]: 30200 nM
- GI50 [16]: 1130 nM
- TGI [16]: 39100 nM
- GI50 [17]: 538 nM
- TGI [17]: 13000 nM
- GI50 [18]: 453 nM
- TGI [18]: 13600 nM
- GI50 [19]: 1820 nM
- TGI [19]: 37000 nM
- GI50 [20]: 601 nM
- TGI [20]: 10900 nM
- GI50 [21]: 1760 nM
- TGI [21]: 15600 nM
- GI50 [22]: 530 nM
- TGI [22]: > 100000 nM
- GI50 [23]: 647 nM
- TGI [23]: 31800 nM
- GI50 [24]: 1030 nM
- GI50 [25]: 846 nM
- TGI [25]: 15100 nM
- GI50 [26]: 89200 nM
- TGI [26]: > 100000 nM
- GI50 [27]: 505 nM
- TGI [27]: 16600 nM
- GI50 [28]: 747 nM
- TGI [28]: 14400 nM
- GI50 [29]: 2680 nM
- TGI [29]: > 100000 nM
- GI50 [30]: 1700 nM
- TGI [30]: 18200 nM
- GI50 [31]: 3630 nM
- TGI [31]: 26800 nM
- GI50 [32]: 1800 nM
- TGI [32]: 17300 nM
- GI50 [33]: 2320 nM
- TGI [33]: > 100000 nM
- GI50 [34]: 667 nM
- TGI [34]: 19100 nM
- GI50 [35]: 2230 nM
- TGI [35]: 6930 nM
- GI50 [36]: 3830 nM
- TGI [36]: 59400 nM
- GI50 [37]: 2760 nM
- TGI [37]: 23600 nM
- GI50 [38]: 2300 nM
- TGI [38]: 13100 nM
- GI50 [39]: 2020 nM
- TGI [39]: 49800 nM
- GI50 [40]: 1240 nM
- TGI [40]: 16000 nM
- GI50 [41]: 2050 nM
- TGI [41]: 28400 nM
- GI50 [42]: 1370 nM
- TGI [42]: 13100 nM
- GI50 [43]: 949 nM
- TGI [43]: 13900 nM
- GI50 [44]: 1990 nM
- TGI [44]: > 100000 nM
- GI50 [45]: 1930 nM
- TGI [45]: 20300 nM
- GI50 [46]: 1130 nM
- TGI [46]: 2870 nM
- GI50 [47]: 2710 nM
- TGI [47]: 97700 nM
- GI50 [48]: 1770 nM
- TGI [48]: 30000 nM
- GI50 [49]: 1640 nM
- TGI [49]: 5850 nM
- GI50 [50]: 699 nM
- TGI [50]: 41500 nM
- GI50 [51]: 1320 nM
- TGI [51]: 12100 nM
- GI50 [52]: 2090 nM
- TGI [52]: 18700 nM
- GI50 [53]: 3380 nM
- TGI [53]: 18900 nM
- GI50 [54]: 1480 nM
- TGI [54]: 58400 nM
- GI50 [55]: 2140 nM
- TGI [55]: > 100000 nM
- GI50 [56]: 1650 nM
- TGI [56]: 5190 nM

SMILES: Cc1[nH]c(C(=O)Nc2ccccc2OCc2cccc(C(=O)N3CCC[C@@H](N)C3)c2)c(Cl)c1Cl
- GI50 [2]: 254 nM
- TGI [2]: 771 nM
- GI50 [4]: 1630 nM
- TGI [4]: 3170 nM
- GI50 [5]: 1240 nM
- TGI [5]: 2990 nM
- GI50 [6]: 1800 nM
- TGI [6]: 3390 nM
- GI50 [7]: 1630 nM
- TGI [7]: 3120 nM
- GI50 [9]: 1790 nM
- TGI [9]: 3360 nM
- GI50 [12]: 1330 nM
- TGI [12]: 2800 nM
- GI50 [15]: 1530 nM
- TGI [15]: 3060 nM
- GI50 [17]: 1330 nM
- TGI [17]: 2710 nM
- GI50 [18]: 1930 nM
- TGI [18]: 3760 nM
- GI50 [19]: 1770 nM
- TGI [19]: 3410 nM
- GI50 [22]: 1130 nM
- TGI [22]: 2500 nM
- GI50 [23]: 1610 nM
- TGI [23]: 3020 nM
- GI50 [24]: 1120 nM
- TGI [24]: 2670 nM
- GI50 [25]: 2060 nM
- TGI [25]: 4570 nM
- GI50 [26]: 1560 nM
- TGI [26]: 3010 nM
- GI50 [29]: 1790 nM
- TGI [29]: 3260 nM
- GI50 [32]: 1770 nM
- TGI [32]: 3500 nM
- GI50 [33]: 1780 nM
- TGI [33]: 3430 nM
- GI50 [37]: 1720 nM
- TGI [37]: 3110 nM
- GI50 [38]: 1600 nM
- TGI [38]: 3090 nM
- GI50 [39]: 1710 nM
- TGI [39]: 3150 nM
- GI50 [47]: 1570 nM
- TGI [47]: 2980 nM
- GI50 [48]: 1060 nM
- TGI [48]: 2620 nM
- GI50 [50]: 1690 nM
- TGI [50]: 3430 nM
- GI50 [51]: 1570 nM
- TGI [51]: 2960 nM
- GI50 [54]: 2040 nM
- TGI [54]: 3700 nM
- GI50 [55]: 1820 nM
- TGI [55]: 3400 nM
- GI50 [56]: 1640 nM
- TGI [56]: 3300 nM
